Test results published in patent publication US7795179B2, “Substituted azole compounds and its preparation and use thereof” (Shenyang Research Institute of Chemical Industry, priority 2004, dated 2010).

What was measured:
Type in all cases: in vivo
cucumber downy mildew = assay: Fungicidal activity on potted plants, cucumber downy mildew; settings: spray on potted plant, inoculation after 24 hours
wheat powdery mildew = assay: Fungicidal activity on potted plants, wheat powdery mildew; settings: spray on potted plant, inoculation after 24 hours
[1] = system: corn southern leaf blight; assay: Fungicidal activity on potted plants, corn southern leaf blight; settings: 100 ppm
wheat head blight = settings: 100 ppm
rape sclerotiniose = assay: Fungicidal activity on potted plants, rape sclerotiniose; settings: 100 ppm
tomato late blight = settings: 100 ppm
grape white rot = assay: Fungicidal activity on potted plants, grape white rot; settings: 100 ppm
tomato early blight = assay: Fungicidal activity on potted plants, tomato early blight; settings: 100 ppm
grape downy mildew = assay: Fungicidal activity on potted plants, grape downy mildew; settings: 100 ppm
apple ring rot = assay: Fungicidal activity on potted plants, apple ring rot; settings: 100 ppm
Protocol: Determination of fungicidal activities against plant diseases of selected compounds were carried out by following procedure:
Technical samples were dissolved in DMF and diluted to required concentration wtih water containing 0.1% tween 80. Test solution was sprayed onto potted plant. Pathogen inoculation was carried out after 24 hours then plants were hold in growth chambers containing constant temperature and moisture for effect. When untreated plant was under desirable disease severity (after 1 week approximately), assessment were carried out by visual observation.

[2] = system: apple alternaria leaf spot; assay: Fungicidal activity on potted plants, apple alternaria leaf spot; settings: 100 ppm
green peach aphid = assay: Insecticidal activity, Potter spraying tower, green peach aphid; settings: 150 ppm, mortality 2 to 3 days after treatment
Protocol: (§1) Determination of insecticidal and acaricidal activities against plant diseases of selected compounds were carried out by following procedure:
(§2) Technical samples were dissolved in acetone and diluted to required concentration with water containing 0.1% of tween 80. Armyworm, diamondback moth and green peach aphid were treated with Potter spraying tower, and culex mosquito was treated with dipping culture method. Mortality investigation of test insects was carried out 2 to 3 days after treatment.

diamondback moth = assay: Insecticidal activity, Potter spraying tower, diamondback moth; settings: 150 ppm, mortality 2 to 3 days after treatment
Protocol: as §1, §2

culex mosquito = assay: Insecticidal activity, dipping culture method, culex mosquito; settings: 150 ppm, mortality 2 to 3 days after treatment
Protocol: as §1, §2

armyworm = assay: Insecticidal activity, Potter spraying tower, armyworm; settings: 150 ppm, mortality 2 to 3 days after treatment
Protocol: as §1, §2

cucumber grey mold = assay: Fungicidal activity on potted plants, cucumber grey mold; settings: 500 ppm, spray on potted plant, inoculation after 24 hours

SMILES	control against cucumber downy mildew (cucumber downy mildew; 50 ppm) [%]	control against cucumber downy mildew (cucumber downy mildew; 500 ppm) [%]	control against wheat powdery mildew (wheat powdery mildew; 50 ppm) [%]	control against wheat powdery mildew (wheat powdery mildew; 500 ppm) [%]	also measured
CO/C=C(/C(=O)OC)c1ccccc1COc1cc(-c2ccccc2)nn1C [Compound 1]	100	100	100	100	–
CO/C=C(/C(=O)OC)c1ccccc1COc1cc(-c2ccc(Cl)cc2)nn1C [Compound 2]	100	100	100	100	control against corn southern leaf blight [1]: more than 80%; control against wheat head blight (wheat head blight): more than 80%; control against rape sclerotiniose (rape sclerotiniose): more than 80%; control against tomato late blight (tomato late blight): more than 80%; control against grape white rot (grape white rot): more than 80%; control against tomato early blight (tomato early blight): more than 80%; control against grape downy mildew (grape downy mildew): more than 80%; control against apple ring rot (apple ring rot): more than 80%; control against apple alternaria leaf spot [2]: more than 80%
CO/C=C(/C(=O)OC)c1ccccc1COc1cc(-c2ccc([N+](=O)[O-])cc2)nn1C [Compound 4]	100	100	100	100	–
CO/C=C(/C(=O)OC)c1ccccc1COc1cc(-c2ccc(C(F)(F)F)cc2)nn1C [Compound 5]	100	100	100	100	–
CO/C=C(/C(=O)OC)c1ccccc1COc1cc(-c2cc(F)c(Cl)cc2Cl)nn1C [Compound 11]	–	100	–	100	–
CO/C=C(/C(=O)OC)c1ccccc1COc1cc(-c2ccc(OC)c(OC)c2)nn1C [Compound 12]	–	100	–	100	–
CO/C=C(/C(=O)OC)c1ccccc1COc1c(C)c(-c2ccc(Cl)cc2)nn1C [Compound 30]	100	100	100	100	control of aphids (green peach aphid): 100%; control of diamond backmoth (diamondback moth): 100%; control of culex mosquitoes (culex mosquito): 100%; control of armyworm (armyworm): 100%
CO/C=C(/C(=O)OC)c1ccccc1COc1cc(-c2ccc(Cl)nc2)nn1C [Compound 69]	100	100	100	100	–
CO/C=C(/C(=O)OC)c1ccccc1COc1cc(-c2ccc(OCC(F)(F)F)cc2)nn1C [Compound 74]	–	100	–	100	–
CO/C=C(/C(=O)OC)c1ccccc1COc1cc(-c2ccccc2)no1 [Compound 83]	–	100	–	100	–
CO/C=C(/C(=O)OC)c1ccccc1COc1cc(-c2ccc(Cl)cc2)no1 [Compound 84]	100	100	100	100	–
CO/C=C(/C(=O)OC)c1ccccc1COc1cc(-c2ccc([N+](=O)[O-])cc2)no1 [Compound 86]	100	100	100	100	–
CO/C=C(/C(=O)OC)c1ccccc1COc1cc(-c2ccc(Cl)nc2)no1 [Compound 151]	–	–	–	100	control against cucumber grey mold (cucumber grey mold): 100%
CO/C=C(/C(=O)OC)c1ccccc1COc1cc(-c2ccc(SC)cc2)nn1C [Compound 165]	–	–	–	100	–
CO/C=C(/C(=O)OC)c1ccccc1COc1cc(-c2ccc(Oc3ccccc3)cc2)nn1C [Compound 174]	–	–	–	100	–
CO/C=C(/C(=O)OC)c1ccccc1COc1c(Cl)c(-c2ccc(-c3ccc(Cl)cc3)cc2)nn1C [Compound 179]	–	–	–	100	–
CO/C=C(/C(=O)OC)c1ccccc1COc1cc(-c2ccc(Cl)cc2)nn1C(C)C [Compound 190]	–	100	–	100	–
CO/N=C(/C(=O)OC)c1ccccc1COc1cc(-c2ccccc2)nn1C [Compound 247]	–	–	–	100	control against cucumber grey mold (cucumber grey mold): 100%
CO/N=C(/C(=O)OC)c1ccccc1COc1cc(-c2ccc(Cl)cc2)nn1C [Compound 248]	–	100	–	100	–
CO/N=C(/C(=O)OC)c1ccccc1COc1cc(-c2ccc(Cl)nc2)nn1C [Compound 287]	100	100	100	100	–
CNC(=O)/C(=N/OC)c1ccccc1COc1cc(-c2ccc(Cl)cc2)nn1C [Compound 356]	–	–	–	100	–
CNC(=O)/C(=N/OC)c1ccccc1COc1cc(-c2ccc(Cl)cc2)nn1C(C)C [Compound 435]	–	–	–	100	–
